# Results reported in patent US7507730B2, “Substituted pyrazolo[1,5-a]pyrimidines as potassium channel activators” (Bristol-Myers Squibb Company, priority 2005, dated 2009).
# Target: Kv1.5 (Homo sapiens, UniProt P22460)
# Assay: Kv1.5 inhibition assay (IKur inhibitor assay per cited references)
# Assay type: cell-based
# Settings: at 0.3 μM
# Source text: Assays to determine the degree of activity of a compound as an IKur inhibitor are well known in the art and are described in references such as J. Gen. Physiol. Apr.; 101 (4):513-43, and Br. J. Pharmacol. 1995 May; 115(2):267-74.
# Kv1.5, sequence (P22460 whole entry): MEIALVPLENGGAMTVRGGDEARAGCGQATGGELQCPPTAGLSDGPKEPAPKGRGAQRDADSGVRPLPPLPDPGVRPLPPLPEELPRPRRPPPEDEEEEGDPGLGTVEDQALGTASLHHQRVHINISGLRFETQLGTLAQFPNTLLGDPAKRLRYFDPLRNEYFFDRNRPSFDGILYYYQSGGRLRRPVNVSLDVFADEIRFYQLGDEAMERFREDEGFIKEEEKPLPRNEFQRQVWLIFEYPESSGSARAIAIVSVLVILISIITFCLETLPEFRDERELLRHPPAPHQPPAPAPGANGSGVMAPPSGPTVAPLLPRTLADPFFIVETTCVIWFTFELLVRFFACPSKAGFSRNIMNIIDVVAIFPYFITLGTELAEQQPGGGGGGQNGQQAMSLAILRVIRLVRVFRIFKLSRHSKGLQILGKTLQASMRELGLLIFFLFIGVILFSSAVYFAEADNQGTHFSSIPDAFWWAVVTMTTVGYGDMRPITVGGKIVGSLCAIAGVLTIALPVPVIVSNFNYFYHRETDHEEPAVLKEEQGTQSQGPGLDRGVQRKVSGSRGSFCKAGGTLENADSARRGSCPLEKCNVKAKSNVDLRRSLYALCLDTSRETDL
Compound,inhibition at 0.3 µM [%],Kv1.5% inhibition [%]
"CC1=C(S(=O)(=O)NC2CCCCC2)C(c2ccc(Cl)c(Cl)c2)n2nc(C)cc2N1 (single isomer, unassigned) [Example 38 Isomer 2, N-Cyclohexyl-7-(3,4-dichlorophenyl)-2,5-dimethyl-4,7-dihydropyrazolo[1,5-a]pyrimidine-6-sulfonamide]",27.6,–
"COc1cccc(S(=O)(=O)C2=C(C)Nc3cc(C(F)(F)F)nn3C2c2ccc(Cl)c(Cl)c2)c1 (single isomer, unassigned) [Example 39 Isomer 1, 7-(3,4-Dichlorophenyl)-6-(3-methoxyphenylsulfonyl)-5-methyl-2-(trifluoromethyl)-4,7-dihydropyrazolo[1,5-a]pyrimidine]",78.6,–
"COc1cccc(S(=O)(=O)C2=C(C)Nc3cc(C(F)(F)F)nn3C2c2ccc(Cl)c(Cl)c2)c1 (single isomer, unassigned) [Example 39 Isomer 2, 7-(3,4-Dichlorophenyl)-6-(3-methoxyphenylsulfonyl)-5-methyl-2-(trifluoromethyl)-4,7-dihydropyrazolo[1,5-a]pyrimidine]",–,79.6
"COc1cccc(S(=O)(=O)C2=C(C)Nc3cc(C(F)(F)F)nn3C2c2ccc(Cl)cc2)c1 (single isomer, unassigned) [Example 40 Isomer 1, 7-(4-Chlorophenyl)-6-(3-methoxyphenylsulfonyl)-5-methyl-2-(trifluoromethyl)-4,7-dihydropyrazolo[1,5-a]pyrimidine]",94.4,–
"COc1cccc(S(=O)(=O)C2=C(C)Nc3cc(C(F)(F)F)nn3C2c2ccc(Cl)cc2)c1 (single isomer, unassigned) [Example 40 Isomer 2, 7-(4-Chlorophenyl)-6-(3-methoxyphenylsulfonyl)-5-methyl-2-(trifluoromethyl)-4,7-dihydropyrazolo[1,5-a]pyrimidine]",–,74.4
"COc1cccc(S(=O)(=O)C2=C(C)Nc3cc(C(F)(F)F)nn3C2c2ccc(C)c(F)c2)c1 (single isomer, unassigned) [Example 41 Isomer 1, 7-(3-Fluoro-4-methylphenyl)-6-(3-methoxyphenylsulfonyl)-5-methyl-2-(trifluoromethyl)-4,7-dihydropyrazolo[1,5-a]pyrimidine]",84.4,–
"COc1cccc(S(=O)(=O)C2=C(C)Nc3cc(C(F)(F)F)nn3C2c2ccc(C)c(F)c2)c1 (single isomer, unassigned) [Example 41 Isomer 2, 7-(3-Fluoro-4-methylphenyl)-6-(3-methoxyphenylsulfonyl)-5-methyl-2-(trifluoromethyl)-4,7-dihydropyrazolo[1,5-a]pyrimidine]",–,85.8
"CC1=C(S(=O)(=O)c2ccc(Cl)cc2)C(c2ccc(C)c(F)c2)n2nc(C(F)(F)F)cc2N1 (single isomer, unassigned) [Example 42 Isomer 1, 6-(4-Chlorophenylsulfonyl)-7-(3-fluoro-4-methylphenyl)-5-methyl-2-(trifluoromethyl)-4,7-dihydropyrazolo[1,5-a]pyrimidine]",94.5,–
"CC1=C(S(=O)(=O)c2ccc(Cl)cc2)C(c2ccc(C)c(F)c2)n2nc(C(F)(F)F)cc2N1 (single isomer, unassigned) [Example 42 Isomer 2, 6-(4-Chlorophenylsulfonyl)-7-(3-fluoro-4-methylphenyl)-5-methyl-2-(trifluoromethyl)-4,7-dihydropyrazolo[1,5-a]pyrimidine]",–,92.9
"CC1=C(S(=O)(=O)c2ccc(Cl)cc2)C(c2ccc(F)cc2)n2nc(C(F)(F)F)cc2N1 (single isomer, unassigned) [Example 43 Isomer 1, 6-(4-Chlorophenylsulfonyl)-7-(4-fluorophenyl)-5-methyl-2-(trifluoromethyl)-4,7-dihydropyrazolo[1,5-a]pyrimidine]",83.6,–
"CC1=C(S(=O)(=O)c2ccc(Cl)cc2)C(c2ccc(F)cc2)n2nc(C(F)(F)F)cc2N1 (single isomer, unassigned) [Example 43 Isomer 2, 6-(4-Chlorophenylsulfonyl)-7-(4-fluorophenyl)-5-methyl-2-(trifluoromethyl)-4,7-dihydropyrazolo[1,5-a]pyrimidine]",–,87.3
"CC1=C(S(=O)(=O)c2ccc(Cl)cc2)C(C2CCCCC2)n2nc(C(F)(F)F)cc2N1 (single isomer, unassigned) [Example 44 Isomer 2, 6-(4-Chlorophenylsulfonyl)-7-cyclohexyl-5-methyl-2-(trifluoromethyl)-4,7-dihydropyrazolo[1,5-a]pyrimidine]",21.3,–
"CC1=C(S(=O)(=O)c2ccc(Cl)cc2)C(CC(C)C)n2nc(C(F)(F)F)cc2N1 (single isomer, unassigned) [Example 45 Isomer 2, 6-(4-Chlorophenylsulfonyl)-7-isobutyl-5-methyl-2-(trifluoromethyl)-4,7-dihydropyrazolo[1,5-a]pyrimidine]",48,–
"COc1ccccc1S(=O)(=O)C1=C(C)Nc2cc(C(F)(F)F)nn2C1c1ccc(Cl)cc1 (single isomer, unassigned) [Example 46 Isomer 1, 7-(4-Chlorophenyl)-6-(2-methoxyphenylsulfonyl)-5-methyl-2-(trifluoromethyl)-4,7-dihydropyrazolo[1,5-a]pyrimidine]",78.1,–
"COc1ccccc1S(=O)(=O)C1=C(C)Nc2cc(C(F)(F)F)nn2C1c1ccc(Cl)cc1 (single isomer, unassigned) [Example 46 Isomer 2, 7-(4-Chlorophenyl)-6-(2-methoxyphenylsulfonyl)-5-methyl-2-(trifluoromethyl)-4,7-dihydropyrazolo[1,5-a]pyrimidine]",–,74.7
"CC1=C(S(=O)(=O)c2ccccn2)C(c2ccc(Cl)cc2)n2nc(C(F)(F)F)cc2N1 (single isomer, unassigned) [Example 47 Isomer 2, 7-(4-Chlorophenyl)-5-methyl-6-(pyridin-2-ylsulfonyl)-2-(trifluoromethyl)-4,7-dihydropyrazolo[1,5-a]pyrimidine]",75.8,–
"COc1ccc(S(=O)(=O)C2=C(CO)Nc3cc(C(F)(F)F)nn3C2c2ccc(Cl)cc2)cc1 (single isomer, unassigned) [Example 49 Isomer 1, (7-(4-Chlorophenyl)-6-(4-methoxyphenylsulfonyl)-2-(trifluoromethyl)-4,7-dihydropyrazolo[1,5-a]pyrimidin-5-yl)methanol]",–,19.6
"COc1ccc(S(=O)(=O)C2=C(CO)Nc3cc(C(F)(F)F)nn3C2c2ccc(Cl)cc2)cc1 (single isomer, unassigned) [Example 49 Isomer 2, (7-(4-Chlorophenyl)-6-(4-methoxyphenylsulfonyl)-2-(trifluoromethyl)-4,7-dihydropyrazolo[1,5-a]pyrimidin-5-yl)methanol]",–,71.2
"CC1=C(S(=O)(=O)c2ccc(Cl)cc2)C(c2cncnc2)n2nc(C(F)(F)F)cc2N1 (single isomer, unassigned) [Example 50 Isomer 1, 6-(4-Chlorophenylsulfonyl)-5-methyl-7-(pyrimidin-5-yl)-2-(trifluoromethyl)-4,7-dihydropyrazolo[1,5-a]pyrimidine]",15.1,–
"CC1=C(S(=O)(=O)c2ccc(Cl)cc2)C(c2cncnc2)n2nc(C(F)(F)F)cc2N1 (single isomer, unassigned) [Example 50 Isomer 2, 6-(4-Chlorophenylsulfonyl)-5-methyl-7-(pyrimidin-5-yl)-2-(trifluoromethyl)-4,7-dihydropyrazolo[1,5-a]pyrimidine]",–,14.7
"COc1ccc(S(=O)(=O)C2=C(C)Nc3cc(C(F)(F)F)nn3C2c2ccc(Cl)cc2)cc1OC (single isomer, unassigned) [Example 51 Isomer 1, 7-(4-Chlorophenyl)-6-(3,4-dimethoxyphenylsulfonyl)-5-methyl-2-(trifluoromethyl)-4,7-dihydropyrazolo[1,5-a]pyrimidine]",69.2,–
"COc1ccc(S(=O)(=O)C2=C(C)Nc3cc(C(F)(F)F)nn3C2c2ccc(Cl)cc2)cc1OC (single isomer, unassigned) [Example 51 Isomer 2, 7-(4-Chlorophenyl)-6-(3,4-dimethoxyphenylsulfonyl)-5-methyl-2-(trifluoromethyl)-4,7-dihydropyrazolo[1,5-a]pyrimidine]",–,79.2
"CC1=C(S(=O)(=O)N2CCCC2)C(c2ccc(Cl)c(Cl)c2)n2nc(C)cc2N1 (single isomer, unassigned) [Example 53 Isomer 1, 7-(3,4-Dichlorophenyl)-2,5-dimethyl-6-(pyrrolidin-1-ylsulfonyl)-4,7-dihydropyrazolo[1,5-a]pyrimidine]",–,95.7
"CC1=C(S(=O)(=O)N2CCCC2)C(c2ccc(Cl)c(Cl)c2)n2nc(C)cc2N1 (single isomer, unassigned) [Example 53 Isomer 2, 7-(3,4-Dichlorophenyl)-2,5-dimethyl-6-(pyrrolidin-1-ylsulfonyl)-4,7-dihydropyrazolo[1,5-a]pyrimidine]",–,54.7

# Same assay, conditions: read-out: Kv1.5 IC50
row,Compound,IC50 [nM]
1,"CC1=C(S(=O)(=O)c2ccc(Cl)cc2)C(C2CCCCC2)n2nc(C(F)(F)F)cc2N1 (single isomer, unassigned) [Example 44 Isomer 1, 6-(4-Chlorophenylsulfonyl)-7-cyclohexyl-5-methyl-2-(trifluoromethyl)-4,7-dihydropyrazolo[1,5-a]pyrimidine]",202
2,"CC1=C(S(=O)(=O)c2ccc(Cl)cc2)C(CC(C)C)n2nc(C(F)(F)F)cc2N1 (single isomer, unassigned) [Example 45 Isomer 1, 6-(4-Chlorophenylsulfonyl)-7-isobutyl-5-methyl-2-(trifluoromethyl)-4,7-dihydropyrazolo[1,5-a]pyrimidine]",249
3,"CC1=C(S(=O)(=O)c2ccccn2)C(c2ccc(Cl)cc2)n2nc(C(F)(F)F)cc2N1 (single isomer, unassigned) [Example 47 Isomer 1, 7-(4-Chlorophenyl)-5-methyl-6-(pyridin-2-ylsulfonyl)-2-(trifluoromethyl)-4,7-dihydropyrazolo[1,5-a]pyrimidine]",197
